{"source": "patent US20030170297A1", "about": "“Lipid-based drug delivery systems containing phospholipase a2 degradable lipid derivatives for topical application to the skin” (priority 2000, published 2003)", "key": {"[1]": {"biological_target": "T1, Snake venom PLA2 (Agkistrodon piscivorus piscivorus) (Agkistrodon piscivorus piscivorus, UniProt P51972)", "T1 construct": "This PLA2 enzyme belongs to the class of low-molecular weight 14 kD secretory enzymes; from tissue; host or cells: snake venom of Agkistrodon piscivorus piscivorus", "T1 sequence (P51972 1-123)": "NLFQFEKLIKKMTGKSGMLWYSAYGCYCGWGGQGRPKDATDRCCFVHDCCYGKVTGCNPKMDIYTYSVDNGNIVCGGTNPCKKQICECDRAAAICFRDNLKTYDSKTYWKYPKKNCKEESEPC", "test": "PLA2-controlled calcein release across non-hydrolysable D-O-SPC target membrane (micelle or liposome carriers)", "type": "biochemical", "method": "Multilamellar model membrane target liposomes were made in the presence of fluorescent calcein in a self-quenching concentration of 20 mM by hydrating a film of 1,2-O-dioctadecyl-sn-glycero-3-phosphatidylcholines (D-O-SPC) in a HEPES buffer solution at pH=7.5 for one hour at 10° C. above the phase transition temperature (Tm=55° C.). Unilamellar liposomes were made by extruding the multilamellar liposomes ten times through two stacked 100 nm polycarbonate filters. The unilamellar liposomes were rapidly cooled to a temperature below the transition temperature, and the calcein-containing liposomes were separated from free calcein using a chromatographic column packed with Sephadex G-50. […] (1-O-DPPE-PEG350), di-octadecanoyl-sn-glycero-3-phosphoethanolamine-N-[methoxy(polyethylene glycol)-750 (DSPE-PEG750). were prepared as described in example 6. Calcein release from the target liposomes is determined by measuring the fluorescent intensity at 520 nm after excitation at 492 nm.\nThe concentrations of D-O-SPC and polymer-lipid micelles were 25 μM. Snake venom PLA2 (Agkistrodon piscivorus piscivorus) was added (25 nM) to initiate the hydrolytic reaction leading to instant formation of the polymer-lyso-1-O-DPPE and the free fatty acid hydrolysis products. […] The percentage of calcein released is determined as described in example 3.\nThe experimental model system consists of a negatively charged liposome carrier and a model target membrane. The carrier is a 100 nm unilamellar liposome made of dipalmitoyl phosphatidylcholine lipids (DPPC) with small amounts (2.5 mol %) of negatively charged lipid of the type dipalmitoyl phosphatidylethanolamine (DPPE)—PEG2000. The target membrane is another liposome made of 1,2-O-dioctadecyl-sn-glycero-phosphatidylcholine (D-O-SPC) which is a phospholipid where the acyl linkages of the stearoyl chains are ether bonds. In contrast to DPPC, D-O-SPC is inert towards PLA2-catalysed hydrolysis thereby mimicking the stability of an intact target cell membrane toward degradation by its own enzymes. This experimental assay, which permits simultaneous as well as separate investigation of the effect of destabilisers at the carrier liposomes and the effect of enhancers at the target membrane, involves entrapment of a water-soluble fluorescent calcein model drug in a self-quenching concentration, in the interior of the non-hydrolysable target liposome, rather than in the carrier liposome. The enhanced level of extracellular PLA2 at the target membrane can then be simulated by adding extracellular PLA2 to initiate the hydrolytic reaction in a suspension of the carrier and target liposomes. The permeation of calcein across the D-O-SPC target membrane is subsequently monitored by the increase in fluorescence. In order to investigate the effect of the presence of small amounts of negatively charged lipids in the carrier liposome, a similar experiment was performed with conventional bare DPPC liposomes. Furthermore, in order to compare and discriminate the permeability enhancing effect of lyso-phospholipids from that of free fatty acids, experiments without enzymes were carried out where lyso-phospholipids and free fatty acids were added simultaneously or separately to the target liposomes.\nDPPC, DCPC, D-O-SPC, and DPPE-PEG2000 were obtained from Avanti Polar Lipids. Purified snake venom PLA2 (Agkistrodon piscivorus piscivorus) was a generous gift from dr. R. L. Biltonen. This PLA2 enzyme belongs to the class of low-molecular weight, 14 kD secretory enzymes which display structural similarity to human extracellular phospholipase A2."}, "[2]": {"biological_target": "T2, phospholipase A2 (PLA2 from Agikistrodon piscivorus piscivorus) (Agkistrodon piscivorus piscivorus, UniProt P51972)", "T2 construct": "This PLA2 enzyme belongs to the class of low-molecular weight 14 kD secretory enzymes; from tissue; host or cells: snake venom of Agkistrodon piscivorus piscivorus", "T2 sequence (P51972 1-123)": "T1 sequence (P51972 1-123)", "test": "PLA2 reaction time profile, lag-time and HPLC percent hydrolysis of unilamellar liposomes", "type": "biochemical", "settings": "FIG. 3, liposomes composed of 1-O-DPPC, after PLA2 addition", "procedure": "Phospholipase A2 reaction profile and lag time measurements Purified snake-venom phospholipase A2 (PLA2 from Agikistrodon piscivorus piscivorus) has been isolated according to the procedure of Maraganore et al., J. Biol. Chem. 259, 13839-13843. […] Assay conditions for the PLA2 reaction time profile shown in FIG. 2 and the lag-time and percent hydrolysis reported in Table 1 were: 0.15 mM unilamellar liposomes, 150 nM PLA2, 150 mM KCL, 10 mM HEPES (pH 7.5), 1 mM NaN3, 30 μM CaCl2, and 10 μM EDTA.\nLag-time and percent hydrolysed 1-O-DPPC at 41° C. as determined by HPLC. The lipid concentration was 0.150 mM in a 10 mM HEPES-buffer (pH=7.5).\nThe catalytic reaction was initiated by adding 8.9 μL of a 42 μM PLA2 (150 nM) stock solution to 2.5 ml of the thermostated liposome suspension (0.150 mM) equilibrated for 800 sec prior to addition of PLA2. The characteristic lag-burst behaviour of PLA2 towards the liposomes is signalled by a sudden increase in the intrinsic fluorescence from PLA2 at 340 nm after excitation at 285 nm followed by a concomitant decrease in the 90° light scattering from the lipid suspension (Hønger et al., Biochemistry 35, 9003-9006). […] The turnover of the PLA2 catalysed lipid hydrolysis of 1-O-DPPC to lyso-1-O-PPC was measured by HPLC (see Table 1). […]"}, "[3]": {"test": "Calcein release across target membrane on adding lyso-phospholipid and fatty acid in the absence of PLA2", "settings": "absence of PLA2, 25 μM target membranes, 39° C., FIG. 12", "source_text": "The experimental model system consists of a negatively charged liposome carrier and a model target membrane. The carrier is a 100 nm unilamellar liposome made of dipalmitoyl phosphatidylcholine lipids (DPPC) with small amounts (2.5 mol %) of negatively charged lipid of the type dipalmitoyl phosphatidylethanolamine (DPPE)—PEG2000. The target membrane is another liposome made of 1,2-O-dioctadecyl-sn-glycero-phosphatidylcholine (D-O-SPC) which is a phospholipid where the acyl linkages of the stearoyl chains are ether bonds. In contrast to DPPC, D-O-SPC is inert towards PLA2-catalysed hydrolysis thereby mimicking the stability of an intact target cell membrane toward degradation by its own enzymes. […] The permeation of calcein across the D-O-SPC target membrane is subsequently monitored by the increase in fluorescence. […]\nMultilamellar target liposomes in the presence of fluorescent calcein in a self-quenching concentration of 20 mM were made by hydrating a film of D-O-SPC in a HEPES buffer solution at pH=7.5 for one hour at 10° C. above the phase transition temperature Tm=55° C. […] Calcein release from the target liposomes is determined by measuring the fluorescent intensity at 520 nm after excitation at 492 nm. […]"}, "[4]": {"biological_target": "T3, phospholipase A2 (A. piscivorus piscivorus) (Agkistrodon piscivorus piscivorus, UniProt P51972)", "T3 sequence (P51972 1-123)": "T1 sequence (P51972 1-123)", "method": "The hydrolysis of micelles composed DSPE-PEG750 was followed by analysis of the amount of stearic acid generated. The catalytic reaction was initiated by adding 8.9 μL of a 42 μM PLA2 (150 nM) stock solution to 2.5 ml a thermostated micelle suspension of DSPE-PEG750 (0.150 mM) equilibrated at 45° C. for 600 seconds prior to addition of PLA2. The characteristic burst behaviour of PLA2 towards the micelles is signalled by a sudden increase in the intrinsic fluorescence from PLA2 at 340 nm after excitation at 285 nm followed by a concomitant decrease in the 90° light scattering from the lipid suspension (Hønger et al., Biochemistry 35, 9003-9006). Samples for HPLC analysis of the amount of stearic acid generated were taken before adding PLA2 and 100 sec after the observed lag-time. […] HPLC analysis was made using a 5 μm diol column, a mobile phase composed of chloroform/methanol/water (730:230:30, v/v) and an evaporative light scattering detector (see example 2)."}}, "note": "Values joined by “and” are separate entries in the source; they are usually repeats but may differ in a detail not shown here. Identical values can stand only once.", "data": [{"molecule": "1—hexadecyl-2-hexadecanoyl-sn-glycero-3-phosphoethanolamine-N-[methoxy(poly-ethylene glycol)-2000] [DPPE-PEG2000]", "values": [{"measurement": "rate of release of calcein across target membrane versus bare DPPC carriers", "setting": "[1]; DPPC + 2.5 mol % DPPE-PEG2000 carriers, 37° C.", "result": "dramatically enhanced"}, {"measurement": "change of lag time versus bare DPPC carriers", "setting": "[1]; DPPC carrier liposomes with 2.5 mol % DPPE-PEG2000, 37° C.", "result": "dramatic decrease in the lag time"}]}, {"molecule": "CCCCCCCCCCCCCCCCOC[C@H](COP(=O)([O-])OCC[N+](C)(C)C)OC(=O)CCCCCCCCCCCCCCC", "note": "[1-O-DPPC]", "values": [{"measurement": "amount of 1-O-DPPC after the lag-burst (HPLC; 100% before PLA2)", "setting": "[2]", "result": 21, "unit": "%"}]}, {"molecule": "CCCCCCCCCCCCCCCCCCOC[C@H](COP(=O)([O-])OCC[N+](C)(C)C)OCCCCCCCCCCCCCCCCCC", "note": "[D-O-SPC, 1,2-O-dioctadecyl-sn-glycero-3-phosphatidylcholines]", "values": [{"measurement": "behaviour towards PLA2-catalysed hydrolysis", "setting": "[1]; target membrane lipid", "result": "inert"}]}, {"molecule": "CCCCCCCCCC(=O)OC[C@H](COP(=O)([O-])OCC[N+](C)(C)C)OC(=O)CCCCCCCCC", "note": "[DCPC, didecanoyl phosphatidylcholine]", "values": [{"measurement": "calcein release across target membrane with short-chain phospholipid in carrier PEG-liposomes", "setting": "[1]; small amount of DCPC in carrier PEG-liposomes, FIG. 11a", "result": "very fast"}]}, {"molecule": "CC(C)CCC[C@@H](C)[C@H]1CC[C@H]2[C@@H]3CC=C4C[C@@H](O)CC[C@]4(C)[C@H]3CC[C@]12C", "note": "[cholesterol]", "values": [{"measurement": "effect on extracellular PLA2 activity", "setting": "[1]; large amount (≈20 mol %) incorporated into liposomes, data not shown", "result": "deactivated"}, {"measurement": "effect on extracellular PLA2 activity", "setting": "[1]; small amount (≈3 mol %) in liposomes", "result": "activates"}]}, {"molecule": "CCCCCCCCCCCCCCCC(=O)O", "note": "[fatty acid, palmitic acid]", "values": [{"measurement": "rate of calcein release across the target membrane, added separately", "setting": "[3]", "result": "increased rate of calcein release"}]}, {"molecule": "di-octadecanoyl-sn-glycero-3-phosphoethanolamine-N-[methoxy(polyethylene glycol)-750 [DSPE-PEG750]", "values": [{"measurement": "amount of stearic acid generated by hydrolysis", "setting": "[4]; 0.150 mM DSPE-PEG750 micelles, 150 nM PLA2, 45° C.", "result": "0.156 mM and 0.157 mM"}, {"measurement": "hydrolysis of DSPE-PEG750 to lyso-DSPE-PEG750 and stearic acid", "setting": "[4]; 0.150 mM micelles, 150 nM PLA2, 45° C., 100 sec after lag time", "result": 100, "unit": "%"}, {"measurement": "observed lag time", "setting": "[4]; DSPE-PEG750 micelles 0.150 mM, 45° C.", "result": 10, "unit": "s"}]}]}
